According to patent US20230340011A1 (Asteroid Therapeutics, priority 2022, published 2023):

How the values were obtained:
SREBP-2 = SREBP-2 (Homo sapiens (Human), UniProt Q12772); assay: In vitro assay SREBP-2: PathHunter U2OS SREBP-2 Nuclear Translocation Cell Line, U18666A-stimulated; assay type: cell-based; settings: PathHunter U2OS SREBP-2 nuclear translocation cells, U18666A 10 μM, overnight (16 hours)
LXRβ = LXRβ (Homo sapiens (Human), UniProt P55055); assay: In vitro assay LXRβ: PathHunter NHR CHO cells, LXRβ / Steroid Receptor Co-activator Peptide enzyme fragment complementation; assay type: cell-based; settings: PathHunter NHR CHO cells, full-length human LXRβ and SRCP, chemiluminescent signal; read-out: LXRβ PPI
LXRβ, sequence (P55055 whole entry, the tested form may be a part): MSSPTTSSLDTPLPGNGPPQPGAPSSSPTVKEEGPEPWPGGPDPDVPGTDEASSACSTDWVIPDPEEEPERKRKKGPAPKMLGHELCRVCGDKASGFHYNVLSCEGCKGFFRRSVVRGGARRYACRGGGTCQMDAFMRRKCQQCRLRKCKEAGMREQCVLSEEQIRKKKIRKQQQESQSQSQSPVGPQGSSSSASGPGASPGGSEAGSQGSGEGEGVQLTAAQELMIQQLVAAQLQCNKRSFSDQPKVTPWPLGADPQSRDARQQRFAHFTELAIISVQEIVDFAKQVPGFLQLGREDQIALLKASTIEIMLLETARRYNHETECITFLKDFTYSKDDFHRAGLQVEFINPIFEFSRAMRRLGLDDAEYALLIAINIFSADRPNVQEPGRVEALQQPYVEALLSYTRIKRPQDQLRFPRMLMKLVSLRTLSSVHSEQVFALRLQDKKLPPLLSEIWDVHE
How it was run: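 Enzyme fragment complementation read-out: CHO cells stably expressing ProLink-tagged full-length human LXRβ plus nuclear enzyme acceptor–SRCP fusion, seeded and held overnight at 37° C. Medium with charcoal-dextran filtered serum; final vehicle 1%. Chemiluminescence measured after signal generation.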

SMILES	IC50 (SREBP-2)	EC50 (LXRβ)
C[C@H](CCC(=O)N1CCN(c2ncccc2OC2CC2)CC1)[C@H]1CC[C@H]2[C@@H]3CC=C4C[C@@H](O)CC[C@]4(C)[C@H]3CC[C@]12C [Example 621, (R)-1-(4-(3-cyclopropoxypyridin-2-yl)piperazin-1-yl)-4-((3S,8S,9S,10R,13R,14S,17R)-3-hydroxy-10,13-dimethyl-2,3,4,7,8,9,10,11,12,13,14,15,16,17-tetradecahydro-1H-cyclopenta[a]phenanthren-17-yl)pentan-1-one]	< 0.25 µM	> 10 µM
C[C@H](CCc1ccns1)[C@H]1CC[C@H]2[C@@H]3CC=C4C[C@@H](O)CC[C@]4(C)[C@H]3CC[C@]12C [Example 183, (3S,8S,9S,10R,13R,14S,17R)-17-((R)-4-(isothiazol-5-yl)butan-2-yl)-10,13-dimethyl-2,3,4,7,8,9,10,11,12,13,14,15,16,17-tetradecahydro-1H-cyclopenta[a]phenanthren-3-ol]	0.25 to 1 µM	> 10 µM
C[C@H](COc1ccccn1)[C@H]1CC[C@H]2[C@@H]3CC=C4C[C@@H](O)CC[C@]4(C)[C@H]3CC[C@]12C [Example 179, (3S,8S,9S,10R,13S,14S,17R)-10,13-dimethyl-17-((S)-1-(pyridin-2-yloxy)propan-2-yl)-2,3,4,7,8,9,10,11,12,13,14,15,16,17-tetradecahydro-1H-cyclopenta[a]phenanthren-3-ol]	< 0.25 µM	> 10 µM
COC(=O)N1CCN(C(=O)CC[C@@H](C)[C@H]2CC[C@H]3[C@@H]4CC=C5C[C@@H](O)CC[C@]5(C)[C@H]4CC[C@]23C)C[C@@H]1C [Example 566, Methyl (2S)-4-[(4R)-4-[(1R,3aS,3bS,7S,9aR,9bS,11aR)-7-hydroxy-9a,11a-dimethyl-1H,2H,3H,3aH,3bH,4H,6H,7H,8H,9H,9aH,9bH,10H,11H,11aH-cyclopenta[a]phenanthren-1-yl]pentanoyl]-2-methylpiperazine-1-carboxylate]	< 0.25 µM	> 10 µM
CNC(=O)C1(C)CCN(C(=O)CC[C@@H](C)[C@H]2CC[C@H]3[C@@H]4CC=C5C[C@@H](O)CC[C@]5(C)[C@H]4CC[C@]23C)CC1 [Example 86, 1-((R)-4-((3S,8S,9S,10R,13R,14S,17R)-3-hydroxy-10,13-dimethyl-2,3,4,7,8,9,10,11,12,13,14,15,16,17-tetradecahydro-1H-cyclopenta[a]phenanthren-17-yl)pentanoyl)-N,4-dimethylpiperidine-4-carboxamide]	0.25 to 1 µM	> 10 µM
COC(=O)N1CCN(C(=O)CC[C@@H](C)[C@H]2CC[C@H]3[C@@H]4CC=C5C[C@](O)(C(F)(F)F)CC[C@]5(C)[C@H]4CC[C@]23C)CC1 [Example 285, methyl 4-((R)-4-((3S,8S,9S,10R,13R,14S,17R)-3-hydroxy-10,13-dimethyl-3-(trifluoromethyl)-2,3,4,7,8,9,10,11,12,13,14,15,16,17-tetradecahydro-1H-cyclopenta[a]phenanthren-17-yl)pentanoyl)piperazine-1-carboxylate]	1 to 10 µM	> 10 µM
C[C@H](CCC(=O)N(C)C)[C@H]1CC[C@H]2[C@@H]3CC=C4C[C@@H](F)CC[C@]4(C)[C@H]3CC[C@]12C [Example 126, (R)-4-((3S,8S,9S,10R,13R,14S,17R)-3-fluoro-10,13-dimethyl-2,3,4,7,8,9,10,11,12,13,14,15,16,17-tetradecahydro-1H-cyclopenta[a]phenanthren-17-yl)-N,N-dimethylpentanamide]	> 10 µM	> 10 µM
CC[C@@]1(OC)CCCN(C(=O)CC[C@@H](C)[C@H]2CC[C@H]3[C@@H]4CC=C5C[C@@H](O)CC[C@]5(C)[C@H]4CC[C@]23C)C1 [Example 201, (R)-1-((R)-3-ethyl-3-methoxypiperidin-1-yl)-4-((3S,8S,9S,10R,13R,14S,17R)-3-hydroxy-10,13-dimethyl-2,3,4,7,8,9,10,11,12,13,14,15,16,17-tetradecahydro-1H-cyclopenta[a]phenanthren-17-yl)pentan-1-one]	< 0.25 µM	1 to 10 µM
CCC(=O)N1CCN(C(=O)CC[C@@H](C)[C@H]2CC[C@H]3[C@@H]4CC=C5C[C@@H](O)CC[C@]5(C)[C@H]4CC[C@]23C)C[C@@H]1C [Example 569, (R)-4-((3S,8S,9S,10R,13R,14S,17R)-3-hydroxy-10,13-dimethyl-2,3,4,7,8,9,10,11,12,13,14,15,16,17-tetradecahydro-1H-cyclopenta [a]phenanthren-17-yl)-1-((S)-3-methyl-4-propionylpiperazin-1-yl)pentan-1-one]	< 0.25 µM	> 10 µM
C[C@H](CCC(=O)N(C)CCc1cccnc1)[C@H]1CC[C@H]2[C@@H]3CC=C4C[C@@H](O)CC[C@]4(C)[C@H]3CC[C@]12C [Example 543, (R)-4-((3S,8S,9S,10R,13R,14S,17R)-3-hydroxy-10,13-dimethyl-2,3,4,7,8,9,10,11,12,13,14,15,16,17-tetradecahydro-1H-cyclopenta[a]phenanthren-17-yl)-N-methyl-N-(2-(pyridin-3-yl)ethyl)pentanamide]	< 0.25 µM	0.25 to 1 µM
C[C@H](CCC(=O)N1CCN(C(=O)c2nnnn2C)CC1)[C@H]1CC[C@H]2[C@@H]3CC=C4C[C@@H](O)CC[C@]4(C)[C@H]3CC[C@]12C [Example 363, (R)-4-((3S,8S,9S,10R,13R,14S,17R)-3-hydroxy-10,13-dimethyl-2,3,4,7,8,9,10,11,12,13,14,15,16,17-tetradecahydro-1H-cyclopenta[a]phenanthren-17-yl)-1-(4-(1-methyl-1H-tetrazole-5-carbonyl)piperazin-1-yl)pentan-1-one]	< 0.25 µM	> 10 µM
C[C@H](CCC(=O)N1CCN(C(=O)N(C)CC2CC2)[C@@H](C)C1)[C@H]1CC[C@H]2[C@@H]3CC=C4C[C@@H](O)CC[C@]4(C)[C@H]3CC[C@]12C [Example 636, (S)—N-(cyclopropylmethyl)-4-((R)-4-((3S,8S,9S,10R,13R,14S,17R)-3-hydroxy-10,13-dimethyl-2,3,4,7,8,9,10,11,12,13,14,15,16,17-tetradecahydro-1H-cyclopenta[a]phenanthren-17-yl)pentanoyl)-N,2-dimethylpiperazine-1-carboxamide]	< 0.25 µM	> 10 µM
C[C@H](CCC(=O)N1CCN(c2cnccn2)CC1)[C@H]1CC[C@H]2[C@@H]3CC=C4C[C@@H](O)CC[C@]4(C)[C@H]3CC[C@]12C [Example 304, (R)-4-((3S,8S,9S,10R,13R,14S,17R)-3-hydroxy-10,13-dimethyl-2,3,4,7,8,9,10,11,12,13,14,15,16,17-tetradecahydro-1H-cyclopenta[a]phenanthren-17-yl)-1-(4-(pyrazin-2-yl)piperazin-1-yl)pentan-1-one]	< 0.25 µM	> 10 µM
C[C@H](CCC(=O)N1O[C@H]2C[C@@H]1[C@H](O)[C@@H]2O)[C@H]1CC[C@H]2[C@@H]3CC=C4C[C@@H](O)CC[C@]4(C)[C@H]3CC[C@]12C [Example 54, (R)-1-((1S,4R,5S,6S)-5,6-dihydroxy-2-oxa-3-azabicyclo [2.2.1]heptan-3-yl)-4-((3S,8S,9S,10R,13R,14S,17R)-3-hydroxy-10,13-dimethyl-2,3,4,7,8,9,10,11,12,13,14,15,16,17-tetradecahydro-1H-cyclopenta[a]phenanthren-17-yl) pentan-1-one]	–	> 10 µM
